Test results published in patent US20260306640A1, “TECHNOLOGIES TARGETING CELL STATES” (Auron Therapeutics, Inc., priority 2023, published 2026).

Legend:
KAT2A [1] = target: T1, KAT2A (Homo sapiens, UniProt Q92830); test: KAT2A reduction in LASCPC-01 cells; format: cell-based; set-up: degrader, Western blot
Protocol: MOLM-13 cells or NCI-H1048 cells were washed with PBS, then lysed with RIPA buffer containing 1×protease and phosphatase inhibitors (SantaCruz Biotechnologies Cat #sc-24948A). Protein was isolated by centrifugation at 12,000×g for 10 minutes at 4° C. and supernatant was collected. Protein was quantified via Bradford assay. Samples were diluted to 4 μg lysate in 16 μL RIPA buffer and then 4 μL of Jess Sample Buffer. Samples were heated at 95° C. for 5 minutes. Samples were loaded onto 12-230 kDa Jess™ Separation Module, 8×25 capillary cartridges (SM-W004, Biotechne). Antibodies loaded were: Primary antibody for KAT2A (GCN5L2 (C26A10) Rabbit mAb (3305, CST)) and for KAT2B (PCAF (C14G9)) Rabbit mAb (3378, CST) at 1:1000 and Anti-Rabbit Detection Module for Jess™ (Cat No #DM-001, Biotechne). Signal was detected by chemiluminescence.
In some embodiments, assessment was performed in LASCPC-01 cells, and reduction of KAT2A and KAT2B levels, including in some cases selectivity for one over the other, was confirmed. In some embodiments, DC50 and/or DC90 were assessed. In some embodiments, DC50 for various compounds was about or no more than about 1 nM. In some embodiments, DC90 for various compounds was about or no more than about 1 nM. In some embodiments, selectivity for the same polypeptide by a compound was observed across multiple types of cells (e.g., when assessed using DC50 and/or DC90). In some embodiments, certain compounds can provide improved properties and/or activities (e.g., potency). Data from certain assessments for certain compounds are presented below as examples (NT: not tested). It has been confirmed that various compounds described herein, including multiple compounds in Table 1, can be deemed to provide further improved properties and/or activities compared to the compound(s) in the table below for certain contexts, aspects, and/or uses.

KAT2A [2] = target: T1, KAT2A; test: KAT2A degradation, Western Blot (Jess), NCI-H1048 cells; format: cell-based; set-up: degrader, Western blot (Jess)
In short: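 NCI-H1048 cells grown in HITES medium with 5% FBS were treated with compounds for 24 h at 37° C. Lysates were run by capillary Western (Jess) with KAT2A or KAT2B antibodies and chemiluminescent detection. DC50 derived from percent protein reduction versus DMSO control.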

CD86 = CD86 by flow cytometry (monocytic differentiation), MOLM-13 cells, 48 hours; format: cell-based; settings: FIG. 2 (C)
Protocol: FIG. 2. Provided compounds can provide various activities. (A): Provided technologies can reduce KAT2A and KAT2B levels and histone acetylation levels. […] Cell count data after 8 days of treatment with compound 22 relative to DMSO control are presented as examples to confirm inhibition. […] (C): Provided technologies can modulate cell states and induce differentiation. […] EC50=0.3 nM.

[3] = tested on: small cell lung cancer cells, e.g., NCI-H1048 cells; test: Differentiation GSEA signatures from RNA-Seq, NCI-H1048; format: cell-based, human; settings: NCI-H1048, FIG. 1
Protocol: In some embodiments, GSEA signatures are utilized for assessing cell states, differentiation, etc. In some assessments, differentiation GSEA signatures, e.g., from RNA-Seq was performed. A useful protocol is described herein as an example. In some assessments, LASCPC-01 cells, NEPC organoid cell pellets, or NCI-H1048 tumor pieces were flash frozen upon harvest and stored at −80° C. RNA was isolated, mRNA library was prepared (poly A enrichment) and sequencing was run. Reads were aligned to reference v38 using Kallis to generate gene count matrices for each sample. The gene count matrix was the input to the ML pipelines that generate normal atlas scores and cell state classification. It was also input to differential expression analysis using Edger in R. The output of differential expression was input to gene set enrichment analysis (GSEA) to define gene sets that were most shifted by treatment. For defining specific epithelial differentiation endpoints to generate the solid tumor differentiation box plots, cell state gene sets resulting from GSEA are consolidated by cell state to define a consensus set of genes that define epithelial differentiation. Other suitable technologies may also utilized in accordance with the present disclosure.

microglial GSEA = test: Microglial GSEA in NEPC primary patient organoid; format: cell-based; settings: both epithelial and neural components; FIG. 3 (F)
Protocol: FIG. 3. Provided compounds can provide various activities. (A): Provided technologies can reduce KAT2A and KAT2B levels and histone acetylation levels. […] Cell viability (Cell Titer Glo) data relative to DMSO control after 7 days of treatment with compound 22 are presented as examples to confirm inhibition. GI50=5 nM. (C): Provided technologies can modulate cell states and induce differentiation. […] (D): Provided technologies can reduce KAT2A and KAT2B levels and histone acetylation levels including in neuroendocrine prostate cancer primary patient organoid. […] Concentrations are nM. […] Cell viability data relative to DMSO control after 21 days of treatment with compound 22 are presented as examples to confirm inhibition. GI50=3 nM. (F): Provided technologies can modulate cell states and induce differentiation.

T1 sequence (Q92830 whole entry): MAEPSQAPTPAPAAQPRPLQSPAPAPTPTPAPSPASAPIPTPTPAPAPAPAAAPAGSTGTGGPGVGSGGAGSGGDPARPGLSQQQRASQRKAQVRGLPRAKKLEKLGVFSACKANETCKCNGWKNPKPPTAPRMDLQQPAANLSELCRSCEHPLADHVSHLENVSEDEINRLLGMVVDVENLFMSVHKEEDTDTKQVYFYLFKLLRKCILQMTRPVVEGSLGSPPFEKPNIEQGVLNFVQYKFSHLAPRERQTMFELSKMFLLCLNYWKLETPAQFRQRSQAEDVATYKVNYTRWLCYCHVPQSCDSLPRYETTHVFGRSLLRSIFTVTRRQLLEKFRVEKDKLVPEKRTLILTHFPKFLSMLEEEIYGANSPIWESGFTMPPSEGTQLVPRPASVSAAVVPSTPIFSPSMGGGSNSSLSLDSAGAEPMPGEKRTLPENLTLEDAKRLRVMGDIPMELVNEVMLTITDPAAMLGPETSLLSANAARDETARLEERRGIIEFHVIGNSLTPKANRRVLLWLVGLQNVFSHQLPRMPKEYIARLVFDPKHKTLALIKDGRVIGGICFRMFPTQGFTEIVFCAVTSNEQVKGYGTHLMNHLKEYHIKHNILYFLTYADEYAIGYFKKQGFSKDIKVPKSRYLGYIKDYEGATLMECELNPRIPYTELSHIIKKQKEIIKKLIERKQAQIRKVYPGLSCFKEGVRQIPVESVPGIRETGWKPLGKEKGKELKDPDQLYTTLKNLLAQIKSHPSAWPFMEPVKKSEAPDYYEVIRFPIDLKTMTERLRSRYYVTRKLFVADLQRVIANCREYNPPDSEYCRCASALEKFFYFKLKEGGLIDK

DC50 (KAT2A [1]; LASCPC-01, KAT2A): 0.06 nM | EC90 (KAT2A [1]; LASCPC-01, KAT2A, read-out: DC90 (the source's name)): 0.67 nM | KAT2A levels (KAT2A [1]; LASCPC-01 cells, FIG. 3): potently reduce KAT2A and KAT2B levels | EC90 (KAT2A [2]; 24 h, NCI-H1048, KAT2A, read-out: DC90 (the source's name)): 0.29 nM | DC50 (KAT2A [2]; NCI-H1048, KAT2A, read-out: DC50): 0.01 nM | KAT2A levels (KAT2A [2]; NCI-H1048 cells, FIG. 1): potently reduce KAT2A and KAT2B levels | DC50 (KAT2A [2]; NCI-H1048 cells, KAT2A, 24 h, Western Blot, vs DMSO, read-out: KAT2A NCI-H1048 DC50): < 1 nM | EC50 (CD86; Homo sapiens, flow cytometry at 48 hours): 0.3 nM
SMILES: CN1C[C@H](Nc2cnn(C)c(=O)c2Br)C[C@H](c2ccc(C(=O)N3CCC(CN4CCN(c5ccc6c(c5)CN(C5CCC(=O)NC5=O)C6=O)CC4)CC3)cc2)C1 (stereo partly drawn) [Compound 22, 3-(5-(4-((1-(4-((3R,5R)-5-((5-bromo-1-methyl-6-oxo-1,6-dihydropyridazin-4-yl)amino)-1-methylpiperidin-3-yl)benzoyl)piperidin-4-yl)methyl)piperazin-1-yl)-1-oxoisoindolin-2-yl)piperidine-2,6-dione]
monocytic differentiation (CD86; CD86 flow cytometry at 48 hours): monocytic differentiation was observed | induction of differentiation [3]: induce differentiation (e.g., epithelial, neural, and/or microglial) | microglial GSEA (microglial GSEA): significant upregulation
